Laboratory results: patent publication US20250129045A1, “SMALL MOLECULE PIM AND MTOR KINASE INHIBITOR AND METHODS OF USE THEREOF” (Arizona Board of Regents on Behalf of the University of …, priority 2022, published 2025)
Entries after “also recorded” stand apart in the source; their conditions may differ.

Experiments:
[1] = molecular target: Pim1 (Homo sapiens, UniProt P11309); assay: Kinase assay with purified Pim1 and EDC3 (EDC3 S161 phosphorylation); assay type: biochemical; settings: in vitro, FIG. 8
Pim1, sequence (P11309 whole entry): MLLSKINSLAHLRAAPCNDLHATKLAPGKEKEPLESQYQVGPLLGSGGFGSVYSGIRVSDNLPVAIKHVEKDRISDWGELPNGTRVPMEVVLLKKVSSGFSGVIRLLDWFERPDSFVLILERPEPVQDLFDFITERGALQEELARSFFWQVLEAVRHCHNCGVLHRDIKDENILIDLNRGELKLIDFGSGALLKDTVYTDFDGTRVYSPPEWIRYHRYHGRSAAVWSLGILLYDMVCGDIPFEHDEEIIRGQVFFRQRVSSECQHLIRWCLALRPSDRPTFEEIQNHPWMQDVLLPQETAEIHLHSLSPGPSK
Experimental: (§1) FIGS. 7A-7I show inhibition of VBT5445 (VBT) on Pim1 and EDC3 binding and phosphorylation. FIG. 7A: In vitro co-precipitation (Co-PPT) assay was performed with recombinant EDC3 and biotinylated Pim1 using Streptavidin beads with increasing concentrations of the Pim inhibitor VBT5445 (VBT). FIG. 7B: Kinase assays were performed with recombinant EDC3 and Pim1 with increasing concentrations of VBT. FIG. 7C: Cell lysates from PC3-LN4 cells cultured with DMSO, 10 μM VBT, 3 μM AZD5363 (AKTi) and the combination for 6 hrs were subjected to western blotting (WB). […] WBs were performed using the indicated antibodies. FIG. 7E: PC3-LN4 cells were seeded into 48 well plate and incubated with either DMSO, VBT, AZD5363 or the combination, for 4.5 days. A real-time imaging system (IncuCyte™) was used to measure cell proliferation using a non-label cell monolayer confluence approach. FIG. 7F-7H: GFP image in PC3 LN4 GFP EDC3 expressing cells treated with PIMi: VBT (5 μM) and VBT (5 μM)+AZD5363 (3 μM) for 6 hrs.
Computer screening followed by surface plasmon resonance (SPR) yielded a lead compound VBT-5445 that can interact with the Pim-1 protein kinase. Enhancer of mRNA Decapping 3 (EDC3) is a substrate of the Pim kinase that regulates the decapping of messenger RNA, and its activity is modulated by Pim mediated phosphorylation. […]

[2] = molecular target: Pim1 and EDC3 binding (Homo sapiens, UniProt P11309); assay: In vitro co-precipitation / co-immunoprecipitation of EDC3 with Pim1; settings: VBT-5445 at concentrations higher than 1 μM, listed as VBT 1-34
Pim1 and EDC3 binding, sequence (P11309 whole entry): as above
Experimental: as §1

[3] = test system: PC3-LN4 cells; assay: Cell growth assay (IncuCyte) in PC3-LN4 prostate cancer cells; assay type: cell-based, human; settings: combination with AZD5363 or BKM120
Experimental: as §1
Cell growth assay: Tumor cells were seeded into 48 well plates (1000 cells/well) and treated with varied agents. The Incucyte real-time imaging system (Incucyte) was used to measure cell proliferation using a non-label cell monolayer confluence approach. The images were captured every 12 h. Graphs were generated using an integrated confluence metric as an alternative for cell numbers. At the end of the study cell growth was visualized by crystal violet staining.

[4] = test system: Pim kinase; assay: Pim substrate phosphorylation in LNCaP prostate cancer cells (Western blot); assay type: cell-based; settings: serum-starved conditions
Experimental: Right: LNCaP and LNCaP stably expressed Pim1 cells were treated with DMSO and GRG-1-34 ([…]) without FBS medium for 6 h. Lysates (25 μg) were subjected to western blotting with the antibodies for P-IRS1 (S1101), IRS1, P-elF4B (S406), elF4B, P-EDC3 (S161), EDC3, Pim1, and β-Actin.
Immunoblotting: Western blots were performed as described previously. Briefly, protein lysates (30 μg) were subjected to SDS-PAGE and transferred to nitrocellulose membranes. After blocking with 5% milk in TBST buffer for 30 min at room temperature, the membranes were incubated overnight at 4° C. with the Indicated primary antibody in 3% BSA in TBST. Specific proteins were detected with the corresponding HRP conjugated secondary antibody using enhanced chemiluminescence (GE Lifesciences, Piscataway, NJ).

[5] = test system: PC3-LN4 and PANC1 cells; assay: RPPA of PC3-LN4 and PANC1 cells (FIG. 24); assay type: cell-based; settings: 5 μM, 24 h
Experimental: Tumor cells were treated with or without GRG-1-34 (5 μM) for 24 h and lysates were subjected to RPPA. The results were clustered in the form of heat map created using the Heatmapper web tool. The analysis was completed with the clustering method of Complete Linkage and the distance measurement method of Kendall's Tau.
To further examine how these compounds function to inhibit tumor growth, changes in both a wide variety of phosphoprotein and protein levels using reverse-phase protein arrays (RPPA) were evaluated. PANC1 and PC3-LN4 cells were treated with GRG1-34 at 5 μM for 24 h. […] The values in the RPPA obtained at these two time points were divided by the value at time zero to allow an evaluation of the changes caused by each drug treatment.

[6] = Plasma pharmacokinetics after oral dosing in mice; assay type: in vivo, mouse
Experimental: Plasma concentrations of GRG-1-34: These concentrations were determined by high performance liquid chromatography (HPLC) tandem mass spectrometry (MS). Quantification was achieved by GRG-1-34 calibration standards prepared in mouse plasma. GRG-1-34 in calibration standards or authentic samples was extracted by protein precipitation with methanol. After centrifugation, the supernatant was injected onto the HPLC-MS system. HPLC separation was achieved using a C-18 column and a gradient mobile phase of water and acetonitrile, both with 0.1% formic acid. The mass spectrometer was operated in the electrospray positive ion mode with selective reaction monitoring. The calibration curve was linear over the plasma concentration range of 2-1800 ng/ml. The pharmacokinetic analysis was performed using PKSolver 2.0 by a noncompartmental analysis. Murine gavage with GRG 1-34 was approved by the Animal Care Committee of the University of Arizona.
To examine the pharmacokinetics of this class of com-pounds GRG 1-34, one of the active isoforms, was given orally and blood was sampled from 3 mice at each time point (FIG. 21). The plasma concentration of GRG-1-34 peaked at 0.5 h after oral dosing and declined as a function of time. […] It has a large apparent volume of distribution (VZ/F) and apparent systemic clearance (CL/F), likely attributed to low systemic bioavailability (F) after oral dosing. At the maximum blood concentration of […], GRG-1-34 reached a concentration of 4 μM which in cell culture was sufficient to inhibit cell growth.

[7] = test system: PC3-LN4 cells; assay: Western blotting of PC3-LN4 cell lysates; assay type: cell-based, human; settings: PC3-LN4 cells with CRISPR/CAS9 knockout of TSC2 or DEPDC5

half-life ([6]; mouse, plasma, 62 mg/kg, oral, read-out: half-life (T1/2) (converted)): 125 min
Cmax ([6]; mouse, plasma, oral, dose of 62 mg/kg, read-out: average maximum plasma concentration (Cmax)): 1990 ng/mL
apparent systemic clearance (CL/F) ([6]; oral): large
maximum blood concentration ([6]; oral): 2 ng/mL
time at which the plasma concentration peaked after oral dosing ([6]; oral (gavage)): 0.5 h
blood concentration reached at the maximum, molar ([6]; oral, level sufficient in cell culture to inhibit growth): 4 µM
SMILES: O=c1c(CNCc2cc(Br)ccn2)cc2ccc(Cl)cc2n1CCOc1ccccc1 [GRG-1-34, 3-((((4-bromopyridin-2-yl)methyl)amino)methyl)-7-chloro-1-(2-phenoxyethyl) quinolin-2 (1H)-one]
inhibition of the ability of Pim to phosphorylate EDC3 [1]: inhibit the ability of Pim to phosphorylate EDC3
co-immunoprecipitation of EDC3 with Pim [2]: block the co-immunoprecipitation of EDC3 with Pim; also recorded: blocks co-immunoprecipitation of EDC3 with Pim
prostate cancer (PC3-LN4) growth, in combination with AKT/PI3K inhibitor [3]: enhanced
Pim kinase activity: Pim substrate phosphorylation (IRS1, elF4B, EDC3) [4]: decreased Pim substrate phosphorylation
Pim kinase activity: Pim substrate phosphorylation (IRS1, elF4B, EDC3) ([4]; listed as GRG 1-34): suppresses Pim kinase activity
Pim kinase activity: Pim substrate phosphorylation (IRS1, elF4B, EDC3) ([4]; listed as VBT 1-34): inhibits Pim activity
mTORC signaling pathway on RPPA (mTOR S2448, S6 S235/235, S6K T389, 4E-BP1 S65) [5]: inhibition
phosphorylation of AMPK T172 on RPPA [5]: increased
phosphorylation of acetyl COA carboxylase S79 on RPPA [5]: increased
mTORC activity in TSC2 or DEPDC5 KO prostate tumor cells [7]: inhibits mTORC
